Experimental data reported in patent US20070049564A1 (Wyeth, priority 2005, published 2007).
In brackets after ≈: the same amount, converted by molar mass. Like-named read-outs stand apart in the source and are kept apart here.

Legend:
E. coli GC 2236 = assay: MIC, broth microdilution; settings: Escherichia coli
E. coli GC 2231 = assay: MIC, broth microdilution; settings: Escherichia coli
E. coli GC 2232 = assay: MIC, broth microdilution; settings: Escherichia coli
E. coli GC 2272 = assay: MIC, broth microdilution; settings: Escherichia coli
P. aeruginosa GC 2214 = assay: MIC, broth microdilution; settings: Pseudomonas aeruginosa
S. aureus GC 1131 = assay: MIC, broth microdilution; settings: Staphylococcus aureus
S. aureus GC 4536 = assay: MIC, broth microdilution; settings: Staphylococcus aureus
S. aureus GC 2216 = assay: MIC, broth microdilution; settings: Staphylococcus aureus
S. epidermidis GC 4935 = assay: MIC, broth microdilution; settings: Staphylococcus epidermidis
E. faecalis GC 4555 = assay: MIC, broth microdilution; settings: Enterococcus faecalis
E. faecalis GC 2265 = assay: MIC, broth microdilution; settings: Enterococcus faecalis
E. faecalis GC 2267 = assay: MIC, broth microdilution; settings: Enterococcus faecalis
E. faecalis GC 2242 = assay: MIC, broth microdilution; settings: Enterococcus faecalis
E. faecium GC 2243 = assay: MIC, broth microdilution; settings: Enterococcus faecium
S. pneumoniae* GC 4465 = assay: MIC, broth microdilution; settings: Streptococcus pneumoniae
S. pneumoniae+ GC 4465 = assay: MIC, broth microdilution; settings: Streptococcus pneumoniae
c. albicans GC 3066 = assay: MIC, broth microdilution
E. coli = assay: Range of MIC for E. coli strains; settings: Escherichia coli
Staph. = assay: Range of MIC for Staph. strains, including MRSA; settings: Staphylococcus aureus
[1] = read-out: MINIMAL INHIBITORY CONCENTRATION MIC, Human Serum
[2] = read-out: MINIMAL INHIBITORY CONCENTRATION MIC, Mouse Serum
[3] = read-out: MINIMAL INHIBITORY CONCENTRATION MIC, Water

Cc1cc(C)cc(C(=O)OCOC(=O)N(CC(=O)Nc2cc(N(C)C)c3c(c2O)C(=O)C2=C(O)[C@]4(O)C(=O)C(C(N)=O)=C(O)[C@@H](N(C)C)[C@@H]4C[C@@H]2C3)C(C)(C)C)c1 [Example 51]
MIC (E. coli GC 2236; GC2236, read-out: MINIMAL INHIBITORY CONCENTRATION MIC, Human Serum): 32 µg/mL (≈ 40.4 µM)
MIC (E. coli GC 2236; GC2236, read-out: MINIMAL INHIBITORY CONCENTRATION MIC, Mouse Serum): 2 µg/mL (≈ 2.53 µM)
MIC (E. coli GC 2236; GC2236, read-out: MINIMAL INHIBITORY CONCENTRATION MIC, Water): > 64 µg/mL
MIC (E. coli GC 2231; GC2231, read-out: MINIMAL INHIBITORY CONCENTRATION MIC, Human Serum): 32 µg/mL (≈ 40.4 µM)
MIC (E. coli GC 2231; GC2231, read-out: MINIMAL INHIBITORY CONCENTRATION MIC, Mouse Serum): 2 µg/mL (≈ 2.53 µM)
MIC (E. coli GC 2231; GC2231, read-out: MINIMAL INHIBITORY CONCENTRATION MIC, Water): > 64 µg/mL
MIC (E. coli GC 2232; GC2232, read-out: MINIMAL INHIBITORY CONCENTRATION MIC, Human Serum): 32 µg/mL (≈ 40.4 µM)
MIC (E. coli GC 2232; GC2232, read-out: MINIMAL INHIBITORY CONCENTRATION MIC, Mouse Serum): 2 µg/mL (≈ 2.53 µM)
MIC (E. coli GC 2232; GC2232, read-out: MINIMAL INHIBITORY CONCENTRATION MIC, Water): > 64 µg/mL
MIC (E. coli GC 2272; GC2272, read-out: MINIMAL INHIBITORY CONCENTRATION MIC, Human Serum): 32 µg/mL (≈ 40.4 µM)
MIC (E. coli GC 2272; GC2272, read-out: MINIMAL INHIBITORY CONCENTRATION MIC, Mouse Serum): 2 µg/mL (≈ 2.53 µM)
MIC (E. coli GC 2272; GC2272, read-out: MINIMAL INHIBITORY CONCENTRATION MIC, Water): > 64 µg/mL
MIC (P. aeruginosa GC 2214; GC2214, read-out: MINIMAL INHIBITORY CONCENTRATION MIC, Human Serum): > 64 µg/mL
MIC (P. aeruginosa GC 2214; GC2214, read-out: MINIMAL INHIBITORY CONCENTRATION MIC, Mouse Serum): 64 µg/mL (≈ 80.8 µM)
MIC (P. aeruginosa GC 2214; GC2214, read-out: MINIMAL INHIBITORY CONCENTRATION MIC, Water): > 64 µg/mL
MIC (S. aureus GC 1131; GC1131, read-out: MINIMAL INHIBITORY CONCENTRATION MIC, Human Serum): 0.5 µg/mL (≈ 0.631 µM)
MIC (S. aureus GC 1131; GC1131, read-out: MINIMAL INHIBITORY CONCENTRATION MIC, Mouse Serum): 0.5 µg/mL (≈ 0.631 µM)
MIC (S. aureus GC 1131; GC1131, read-out: MINIMAL INHIBITORY CONCENTRATION MIC, Water): 1 µg/mL (≈ 1.26 µM)
MIC (S. aureus GC 4536; GC4536, read-out: MINIMAL INHIBITORY CONCENTRATION MIC, Human Serum): 0.5 µg/mL (≈ 0.631 µM)
MIC (S. aureus GC 4536; GC4536, read-out: MINIMAL INHIBITORY CONCENTRATION MIC, Mouse Serum): 0.5 µg/mL (≈ 0.631 µM)
MIC (S. aureus GC 4536; GC4536, read-out: MINIMAL INHIBITORY CONCENTRATION MIC, Water): 1 µg/mL (≈ 1.26 µM)
MIC (S. aureus GC 2216; GC2216, read-out: MINIMAL INHIBITORY CONCENTRATION MIC, Human Serum): 0.5 µg/mL (≈ 0.631 µM)
MIC (S. aureus GC 2216; GC2216, read-out: MINIMAL INHIBITORY CONCENTRATION MIC, Mouse Serum): 0.5 µg/mL (≈ 0.631 µM)
MIC (S. aureus GC 2216; GC2216, read-out: MINIMAL INHIBITORY CONCENTRATION MIC, Water): 1 µg/mL (≈ 1.26 µM)
MIC (S. epidermidis GC 4935; GC4935, read-out: MINIMAL INHIBITORY CONCENTRATION MIC, Human Serum): 2 µg/mL (≈ 2.53 µM)
MIC (S. epidermidis GC 4935; GC4935, read-out: MINIMAL INHIBITORY CONCENTRATION MIC, Mouse Serum): 2 µg/mL (≈ 2.53 µM)
MIC (S. epidermidis GC 4935; GC4935, read-out: MINIMAL INHIBITORY CONCENTRATION MIC, Water): 4 µg/mL (≈ 5.05 µM)
MIC (E. faecalis GC 4555; GC4555, read-out: MINIMAL INHIBITORY CONCENTRATION MIC, Human Serum): 8 µg/mL (≈ 10.1 µM)
MIC (E. faecalis GC 4555; GC4555, read-out: MINIMAL INHIBITORY CONCENTRATION MIC, Mouse Serum): 1 µg/mL (≈ 1.26 µM)
MIC (E. faecalis GC 4555; GC4555, read-out: MINIMAL INHIBITORY CONCENTRATION MIC, Water): 16 µg/mL (≈ 20.2 µM)
MIC (E. faecalis GC 2265; GC2265, read-out: MINIMAL INHIBITORY CONCENTRATION MIC, Human Serum): 4 µg/mL (≈ 5.05 µM)
MIC (E. faecalis GC 2265; GC2265, read-out: MINIMAL INHIBITORY CONCENTRATION MIC, Mouse Serum): 1 µg/mL (≈ 1.26 µM)
MIC (E. faecalis GC 2265; GC2265, read-out: MINIMAL INHIBITORY CONCENTRATION MIC, Water): 8 µg/mL (≈ 10.1 µM)
MIC (E. faecalis GC 2267; GC2267, read-out: MINIMAL INHIBITORY CONCENTRATION MIC, Human Serum): 4 µg/mL (≈ 5.05 µM)
MIC (E. faecalis GC 2267; GC2267, read-out: MINIMAL INHIBITORY CONCENTRATION MIC, Mouse Serum): 2 µg/mL (≈ 2.53 µM)
MIC (E. faecalis GC 2267; GC2267, read-out: MINIMAL INHIBITORY CONCENTRATION MIC, Water): 16 µg/mL (≈ 20.2 µM)
MIC (E. faecalis GC 2242; GC2242, read-out: MINIMAL INHIBITORY CONCENTRATION MIC, Human Serum): 4 µg/mL (≈ 5.05 µM)
MIC (E. faecalis GC 2242; GC2242, read-out: MINIMAL INHIBITORY CONCENTRATION MIC, Mouse Serum): 2 µg/mL (≈ 2.53 µM)
MIC (E. faecalis GC 2242; GC2242, read-out: MINIMAL INHIBITORY CONCENTRATION MIC, Water): 8 µg/mL (≈ 10.1 µM)
MIC (E. faecium GC 2243; GC2243, read-out: MINIMAL INHIBITORY CONCENTRATION MIC, Human Serum): 4 µg/mL (≈ 5.05 µM)
MIC (E. faecium GC 2243; GC2243, read-out: MINIMAL INHIBITORY CONCENTRATION MIC, Mouse Serum): 1 µg/mL (≈ 1.26 µM)
MIC (E. faecium GC 2243; GC2243, read-out: MINIMAL INHIBITORY CONCENTRATION MIC, Water): 4 µg/mL (≈ 5.05 µM)
MIC (S. pneumoniae* GC 4465; [1]): 2 µg/mL (≈ 2.53 µM)
MIC (S. pneumoniae* GC 4465; [2]): 0.5 µg/mL (≈ 0.631 µM)
MIC (S. pneumoniae* GC 4465; [3]): 1 µg/mL (≈ 1.26 µM)
MIC (S. pneumoniae+ GC 4465; [1]): 2 µg/mL (≈ 2.53 µM)
MIC (S. pneumoniae+ GC 4465; [2]): 1 µg/mL (≈ 1.26 µM)
MIC (S. pneumoniae+ GC 4465; [3]): 1 µg/mL (≈ 1.26 µM)
MIC (c. albicans GC 3066; Candida albicans, GC3066, read-out: MINIMAL INHIBITORY CONCENTRATION MIC): > 64 µg/mL
MINIMAL INHIBITORY CONCENTRATION MIC (c. albicans GC 3066; Human Serum): >64 UG/ML
MINIMAL INHIBITORY CONCENTRATION MIC (c. albicans GC 3066; Mouse Serum): >64 UG/ML
MIC (E. coli; 20 h, read-out: Range of MIC, E. coli (Mouse Serum)): 1 to 2 µg/mL (≈ 1.26 to 2.53 µM)
MIC (E. coli; read-out: Minimum inhibitory concentration (MIC), E. coli (Human Serum)): 32 to 64 µg/mL (≈ 40.4 to 80.8 µM)
MIC (E. coli; read-out: Minimum inhibitory concentration (MIC), E. coli (water)): > 64 µg/mL
MIC (E. coli; read-out: Range of MIC, E. coli (Water)): > 64 µg/mL
MIC (Staph.; MRSA, read-out: Range of MIC, Staph (Mouse Serum)): 0.25 to 2 µg/mL (≈ 0.316 to 2.53 µM)
MIC (Staph.; MRSA, read-out: Range of MIC, Staph (Water)): 1 to 4 µg/mL (≈ 1.26 to 5.05 µM)
MIC (Staph.; read-out: Minimum inhibitory concentration (MIC), Staph (Human Serum)): 0.25 to 2 µg/mL (≈ 0.316 to 2.53 µM)
MIC (Staph.; read-out: Minimum inhibitory concentration (MIC), Staph (Water)): 1 to 4 µg/mL (≈ 1.26 to 5.05 µM)
